Experimental data from US20250360111A1, “COMPOSITIONS OF AGPAT4 INHIBITORS AND METHODS OF USING THEREOF TO TREAT CANCER” (The University of Hong Kong, priority 2024, published 2025).

Columns and labels:
[1] = tested on: AGPAT LPAAT family members (AGPAT1, 2, 3, 4 and 5); assay: Isoform specificity: streptavidin pulldown and immunoblotting of CL26-alkyne-bound proteins; format: cell-based, human; conditions: Huh7 cells, DTB-PEG-azide, streptavidin pulldown
Description: An in-gel fluorescence assay was performed to investigate the protein targets of CL26. Huh7 cells overexpressing AGPAT4 or cysteine mutants were pre-treated with CL26 at the indicated concentrations for 2 h, followed by CL26-alkyne (1 μM) treatment for another 2 h. Cells were harvested in RIPA buffer supplemented with protease and phosphatase inhibitors (Thermo Fisher Scientific #A32961). The proteins were precipitated by incubation with 6× volume of pre-chilled acetone at −20° C. overnight. Proteins were pelleted by centrifugation at 5000 g for 10 min and resuspended in PBS. The protein content was measured using the BCA assay and normalized to 2 mg/mL. Cell lysates (50 μL) were labelled with azide-fluor 545 by click reaction (final reaction mixture: azide-fluor 545 (25 μM), copper(II) sulfate (1 mM), TBTA (100 μM), and freshly prepared TCEP (1 mM)) at room temperature with constant agitation. After incubation for 1 h, the reaction was quenched with the sampling buffer and boiled at 90° C. for 5 min. Samples were subjected to SDS-PAGE, in-gel fluorescence was captured using ChemiDoc MP (Bio-Rad), and Coomassie Blue staining was performed. Similarly, immunoblotting was used to investigate the protein targets of CL26. […] The samples were subjected to SDS-PAG E and imaged for fluorescence signals before western blot analysis. […]

AGPAT4 [2] = assay: Competitive gel-based ABPP in live cells with CL26-alkyne probe; format: cell-based, human; conditions: Huh7 cells, empty vector vs FLAG-AGPAT4; silver staining of enriched proteins
Description: (§1) An in-gel fluorescence assay was performed to investigate the protein targets of CL26. Huh7 cells overexpressing AGPAT4 or cysteine mutants were pre-treated with CL26 at the indicated concentrations for 2 h, followed by CL26-alkyne (1 μM) treatment for another 2 h. Cells were harvested in RIPA buffer supplemented with protease and phosphatase inhibitors (Thermo Fisher Scientific #A32961). The proteins were precipitated by incubation with 6× volume of pre-chilled acetone at −20° C. overnight. Proteins were pelleted by centrifugation at 5000 g for 10 min and resuspended in PBS. The protein content was measured using the BCA assay and normalized to 2 mg/mL. Cell lysates (50 μL) were labelled with azide-fluor 545 by click reaction (final reaction mixture: azide-fluor 545 (25 μM), copper(II) sulfate (1 mM), TBTA (100 μM), and freshly prepared TCEP (1 mM)) at room temperature with constant agitation. After incubation for 1 h, the reaction was quenched with the sampling buffer and boiled at 90° C. for 5 min. Samples were subjected to SDS-PAGE, in-gel fluorescence was captured using ChemiDoc MP (Bio-Rad), and Coomassie Blue staining was performed. Similarly, immunoblotting was used to investigate the protein targets of CL26. Huh7 cells stably transfected with FLAG-AGPAT4 were pre-treated with either the solvent control or CL26 at the indicated concentrations for 2 h, followed by CL26-alkyne (10 μM) treatment for another 2 h. Cells were harvested, and lysates were prepared as described above unless specified. Anti-FLAG M 2 affinity beads were added in FLAG-tag pull-down experiments. After 4 h of incubation at 4° C., the beads were washed with TBS-T and resuspended in TBS-T. Sampling buffer was added and the samples were boiled for protein elution. The samples were subjected to SDS-PAG E and imaged for fluorescence signals before western blot analysis. In the probe pull-down experiment, 1 mL of lysate was labelled with desthiobiotin (DTB)-azide by a click reaction (final reaction mixture: copper(II) sulfate (1 mM), TBTA (100 μM), DTB-PEG-azide (100 μM), and freshly prepared TCEP (1 mM)). […]

AGPAT4 [3] = target: T1, AGPAT4 (Homo sapiens, UniProt Q9NRZ5); assay: as above; format: cell-based; conditions: Huh7 cells stably expressing FLAG-AGPAT4
T1 construct: The open reading frame (ORF) encoding the mRNA of AGPAT4 was cloned into the pDONR-221 donor vector; expressed in transfected cells; host or cells: Huh7
T1 sequence (Q9NRZ5 1-378): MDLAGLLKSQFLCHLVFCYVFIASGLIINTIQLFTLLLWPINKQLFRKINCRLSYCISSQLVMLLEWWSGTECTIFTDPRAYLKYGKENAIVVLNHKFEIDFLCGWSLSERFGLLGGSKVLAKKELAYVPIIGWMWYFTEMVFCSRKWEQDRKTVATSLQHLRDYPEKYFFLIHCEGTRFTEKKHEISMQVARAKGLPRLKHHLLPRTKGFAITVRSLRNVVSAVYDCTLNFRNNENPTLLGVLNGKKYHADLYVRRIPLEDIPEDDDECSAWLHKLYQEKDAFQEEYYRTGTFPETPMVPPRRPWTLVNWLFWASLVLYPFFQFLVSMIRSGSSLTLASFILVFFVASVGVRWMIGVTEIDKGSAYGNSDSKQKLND
Description: as §1

[4] = tested on: HCC PDX model #1 and sorafenib-resistant HCC PDX model #2
Description: HCC PDX #1 were first expanded in NOD-SCID mice as described previously (21). Sorafenib-resistant HCC PDX #2 was established and expanded as described previously (29). Dissociated PDX tumors (5×10^5 cells in 100% Matrigel) were orthotopically injected into the left lobes of the livers of 6-week-old BA L B/c nude mice (n=6-10 per group). Drug administration was initiated three weeks after inoculation. The mice were then randomized for treatment with DMSO, sorafenib, 30% PET (30% PEG400/15% ethanol/5% Tween 80 in saline), or CL26 (1 mg/kg or 10 mg/kg, delivered intraperitoneally thrice per week). Seven weeks post-inoculation, tumor-bearing mice were sacrificed. The livers were harvested for histological and ex vivo limiting dilution analyses.

[5] = sorafenib orally plus CL26 intraperitoneally

## O=C(CCl)NCc1ccc(-c2nc3ccccc3s2)o1 [CL26, N-[[5-(2-benzothiazolyl)-2-furanyl]methyl]-2-chloroacetamide]
[1]
  specificity for AGPAT4 over other AGPAT LPAAT family members: only targets AGPAT4 and no other related AGPAT isoforms
AGPAT4 [2]
  off-target binding: minimal off-target binding
AGPAT4 [3]
  in-gel fluorescence of CL26-alkyne-bound AGPAT4 upon CL26 pre-treatment (target engagement): significant decrease in fluorescence intensity
[4]; PDX mice treated with CL26
  body weight vs control group: did not exhibit significant differences in body weight
[4]; PDX tumors
  p-mTOR levels, multiplex immunohistochemistry: reduction in p-mTOR levels
[4]; combination with sorafenib
  self-renewal ability, ex vivo limiting dilution analysis: decreased self-renewal ability
[4]; combination with sorafenib, HCC PDX model #2
  survival rate: highest survival rate
[4]; [5]
  number of tumor nodules: significant effect in reducing
  tumor size: significant effect in reducing
  tumor weight: significant effect in reducing
